In the test the target is T1, human leukocyte-derived elastase [ヒト白血球由来エラスターゼ] (Homo sapiens, UniProt P08246).
T1 construct: ヒト白血球由来エラスターゼはシグマ社; purchased Sigma (USA); host or cells: human leukocytes (natural source, as the printed name says)
T1 sequence (P08246 30-247 limits assumed): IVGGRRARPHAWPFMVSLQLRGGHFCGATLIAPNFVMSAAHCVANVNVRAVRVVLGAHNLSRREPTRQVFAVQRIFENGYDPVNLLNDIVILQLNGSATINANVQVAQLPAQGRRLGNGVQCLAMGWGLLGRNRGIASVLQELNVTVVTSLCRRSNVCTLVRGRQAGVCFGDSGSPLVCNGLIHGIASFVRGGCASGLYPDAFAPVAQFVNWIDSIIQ
The experiment in a line: エラスターゼ阻害試験 (elastase inhibition test, Test Example 1; fluorogenic substrate). The class given is biochemical. To be noted: 50% inhibitory concentration of elastase activity; substrate methoxysuccinyl-Ala-Ala-Pro-Val-4-methyl-coumaryl-7-amide; 0.2M Tris-HCl buffer containing 1M NaCl, pH 8.5; 35℃, 5 min incubation; fluorescence 370/460 nm.
Molecule `CC(C)CCC(CCC(C)C)C(=O)NO` [実施例4, 2−イソペンチル−5−メチルヘキサノヒドロキサム酸] displayed an IC50 of 1000 nM. Next, `CCOC(=O)C(CCC(C)C)(CCC(C)C)C(=O)NO` [実施例2, 2−イソペンチル−5−メチル−2−エトキシカルボニルヘキサノヒドロキサム酸]: 1000 nM. In turn, `CCOC(=O)C(CCC(C)C)(CCC(C)C)C(=O)NOCc1ccccc1` [実施例1, 2−イソペンチル−5−メチル−2−エトキシカルボニルヘキサノヒドロキサム酸ベンジルエステル] had an IC50 of 3000 nM.

In general, IC50 refers to the midpoint of a concentration-inhibition curve.

The record behind these values is patent publication JPH07173127A, “ヒドロキサム酸誘導体およびそれを有効成分とするエラスターゼ阻害剤” (Kuraray Co Ltd, priority 1993, dated 1995).
